“And” between values parts separate entries of the source, which are not always exact repeats. Equal values may be shown once. Read-outs that look alike come from different tables or passages of the source.
How the values were obtained:
[1] = Transdermal administration of R-55 formulation to pigs, plasma R-55; assay type: in vivo, White Landrace female pigs
Experimental: (§1) R-55 and related compounds were assayed in the plasma samples using a Waters (USA) Alliance high performance liquid chromatograph coupled with a Waters Micromass ZQ quadruple mass spectrometer (in ESI+ mode) as a detector with Waters Empower chromatographic and mass spectrometric software for chromatographic data acquisition, processing and instrument control.
(§2) The tested compound was extracted from plasma using dichloromethane, followed by concentration by evaporating the extract and dissolution in a low volume chromatographic mobile phase.
(§3) The instrument was calibrated using plasma spiked with various concentrations of the tested compound. Enrofloxacin (m/z=360.4) was used as an internal standard.
In order to investigate the feasibility of transdermal administration of R-55, the presence of R-55 in plasma was measured following administration to pigs of the exemplary transdermal formulation described in Example 5.
White Landrace female pigs were acclimatized for 5 days prior to application of the formulation. 50 ml of the formulation (containing 500 mg R-55) was applied over a 15×7 cm area of the skin of each pig, in a single dose. In order to facilitate constant transdermal administration for at least 6 hours, a suitable plastic shield, attached by adhesive plaster, was used to cover the whole treated dermal surface area for six hours.
(§4) Clinical observations were performed during the six hours following application.
Blood samples were withdrawn from each pig via a jugular vein catheter at the following time points: immediately prior to application (t=0) and 15 minutes, 30 minutes, 45 minutes, 60 minutes, 90 minutes, 2 hours, 4 hours, and 6 hours post-application. All samples were collected in commercially available, EDTA supplemented test-tubes. Blood samples were stored on crushed ice after collection. Plasma was separated by centrifugation (10 minutes at 3000 rotations per minute), within one hour post-sampling. Each plasma sample was divided into two aliquots before freezing. Plasma samples were then stored at −20° C. until being dispatched for LCMS analysis.

[2] = molecular target: D2 short receptor (Homo sapiens (Human), UniProt P14416); experiment: Competitive binding to D2 short receptor ([3H]-spiperone), D4/D2 selectivity; conditions: ratio of concentrations required to inhibit 50% of radioligand binding for each receptor
Sequence of D2 short receptor (P14416 other isoform, or with tags, fused parts or gaps): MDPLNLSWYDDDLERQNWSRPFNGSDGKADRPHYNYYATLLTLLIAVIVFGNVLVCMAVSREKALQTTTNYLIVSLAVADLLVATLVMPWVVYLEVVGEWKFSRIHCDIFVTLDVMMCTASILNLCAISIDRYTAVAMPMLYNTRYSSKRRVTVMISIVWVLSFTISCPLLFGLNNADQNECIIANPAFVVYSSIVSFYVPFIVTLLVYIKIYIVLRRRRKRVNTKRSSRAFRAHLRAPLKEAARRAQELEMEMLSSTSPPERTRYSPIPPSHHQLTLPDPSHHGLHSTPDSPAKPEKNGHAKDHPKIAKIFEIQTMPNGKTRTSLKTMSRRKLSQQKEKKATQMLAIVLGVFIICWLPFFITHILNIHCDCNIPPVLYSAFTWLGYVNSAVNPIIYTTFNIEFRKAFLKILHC
Experimental: R-55 (which comprises a 3-hydroxyphenyl moiety) and its isomers L-221 (comprising a 4-hydroxyphenyl moiety) and L-238 (comprising a 2-hydroxyphenyl moiety) were assayed for competitive binding to D2 SHORT and D4.4 type dopamine receptors, in order to assess their efficacy for treating sexual disorders. Both receptor types are expressed as human recombinant proteins in CHO cells, as described, for example, in Jarvis et al. (1973); Van Tol et al. (1991) and Van Tol et al. (1992).
Determination of binding to D2 short receptor was performed using [^3H]-spiperone, a D2 receptor ligand (Gundlach et al., 1984), as a radioligand (20-60 Ci/mmol, 0.2 nM) in the presence of various concentrations of the tested compound. Reactions were carried out in 50 mM TRIS-HCl (pH 7.4) containing 120 mM NaCl, 5 mM KCl, 5 mM MgCl2 and 1 mM EDTA, for 60 minutes at 25° C. The reaction was terminated by rapid vacuum filtration onto glass fiber filters. Radioactivity trapped onto the filters was determined (counted) and compared to control values in order to accurately evaluate any interaction of the test compound(s) with the cloned dopamine D2 short binding site.
Selectivity of R-55 was calculated as the D4/D2 binding ratio, based on the ratio of the concentration required to inhibit 50% of the radioligand binding for each receptor.

[3] = Pharmacokinetics of R-55 following intravenous administration in pigs; assay type: in vivo, White Landrace female pigs; conditions: 0.2 mg/kg intravenous
Experimental: as §1, §2, §3
In order to investigate the pharmacokinetics of R-55, the presence of R-55 in plasma was measured following intravenous administration of R-55 in pigs.
White Landrace female pigs were acclimatized for 2days prior to treatment. 3 pigs were administered 0.2 mg/kg R-55 by intravenous injection at a dose volume of 0.2 ml/kg. Blood samples were withdrawn from each pig via a jugular vein catheter at the following time points: immediately prior to injection (t=0), and 5 minutes, 10 minutes, 15 minutes, 30 minutes, 45 minutes, 60 minutes, 90 minutes, 2 hours, 3 hours, 4 hours, and 6 hours post-injection. All samples were collected in a K3EDTA tube (Greiner). Blood samples were stored on crushed ice after collection. Plasma was separated by centrifugation (10 minutes at 3000 rotations per minute), within two hours post-sampling. Each plasma sample was divided into two aliquots before freezing. Plasma samples were then stored at −20° C. until being dispatched for LCMS analysis.
as §4
Pharmacokinetic analysis was performed using the WINNONLIN version 5.0 (Pharsight, USA) computerized software. Area under curves of concentration vs. time (AUC) were calculated using the log linear trapezoidal rule. Area under curves were determined for the time period for which concentrations were measured, i.e., t=0 to 6 hours (AUCall), and for an infinite time period (AUCINF), as determined by extrapolation of the curve to t=∞.

concentration at 0 min ([1]; female, White Landrace, pig, plasma, topical, 500 mg, transdermal 500 mg R-55 (50 ml formulation), 0 minutes (immediately prior to application), individual animals #1-#4): 0 ng/mL | concentration at 30 min ([1]; female, White Landrace, pig, plasma, topical, 500 mg, transdermal 500 mg R-55, 30 minutes after application, individual animals #1-#4): 16.7 ng/mL | concentration at 4 h ([1]; female, White Landrace, pig, plasma, topical, 500 mg, transdermal 500 mg R-55, 4 hours after application, individual animals #1-#4): 0 ng/mL | concentration at 6 h ([1]; female, White Landrace, pig, plasma, topical, 500 mg, transdermal 500 mg R-55, 6 hours after application, individual animals #1-#4): 0 ng/mL | R-55 concentration (plasma) ([1]; transdermal 500 mg R-55 (50 ml formulation), 0 minutes (immediately prior to application), individual animals #1-#4): 0 ng/mL | R-55 concentration (plasma) ([1]; transdermal 500 mg R-55, 15 minutes after application, individual animals #1-#4): 0 ng/ml (3×) and 10.8 ng/ml | R-55 concentration (plasma) ([1]; transdermal 500 mg R-55, 30 minutes after application, individual animals #1-#4): 19.9 ng/mL and 11.8 ng/mL and 15.2 ng/mL | R-55 concentration (plasma) ([1]; transdermal 500 mg R-55, 45 minutes after application, individual animals #1-#4): 0 ng/ml (3×) and 10.5 ng/ml | R-55 concentration (plasma) ([1]; transdermal 500 mg R-55, 4 hours after application, individual animals #1-#4): 0 ng/mL | R-55 concentration (plasma) ([1]; transdermal 500 mg R-55, 6 hours after application, individual animals #1-#4): 0 ng/mL | Clinical observations ([1]; transdermal 500 mg R-55, six hours following application): No clinical abnormalities were observed | duration of relatively stable concentration of R-55 in plasma after administration ([1]; transdermal administration): at least 2 hours | Selectivity D4/D2 [2]: 160 | Time to elimination from the bloodstream after administration [3]: ≤ 30 min | R-55 plasma concentration ([3]; 0 minutes (immediately prior to injection), individual animals #1-#3): 0 ng/mL | R-55 plasma concentration ([3]; 5 minutes after injection, individual animals #1-#3): 122.1 ng/mL and 142.2 ng/mL | R-55 plasma concentration ([3]; 10 minutes after injection, individual animals #1-#3): 112.9 ng/mL and 83.0 ng/mL | R-55 plasma concentration ([3]; 15 minutes after injection, individual animals #1-#3): 30.4 ng/mL and 76.8 ng/mL and 52.8 ng/mL | R-55 plasma concentration ([3]; 30 minutes after injection, individual animals #1-#3): 0 ng/mL and 24.9 ng/mL and 22.3 ng/mL | R-55 detection in plasma ([3]; 45 minutes or more following administration): No R-55 was detected | Cmax - maximal concentration ([3]; individual animals): 122.1 ng/mL and 142.2 ng/mL | Mean residence time ([3]; individual animals): 17.0 min and 15.8 min | Volume of distribution ([3]; individual animals): 1.193 L/kg and 1.3081 L/kg | Volume of distribution at steady state ([3]; individual animals): 1.3589 L/kg and 1.5093 L/kg | concentration at 0 min ([3]; female, White Landrace, pig, plasma, iv, 0.2 mg/kg, 0 minutes (immediately prior to injection), individual animals #1-#3): 0 ng/mL | concentration at 5 min ([3]; female, White Landrace, pig, plasma, iv, 0.2 mg/kg, 5 minutes after injection, individual animals #1-#3): 158 ng/mL | concentration at 10 min ([3]; female, White Landrace, pig, plasma, iv, 0.2 mg/kg, 10 minutes after injection, individual animals #1-#3): 86.7 ng/mL | AUC(0-inf) ([3]; female, White Landrace, pig, plasma, iv, 0.2 mg/kg, extrapolation to infinite time, individual animals): 32.1 ng·h/mL | Clearance ([3]; female, White Landrace, pig, plasma, iv, 0.2 mg/kg, individual animals, read-out: Clearance): 104 mL/min/kg | Cmax ([3]; female, White Landrace, pig, plasma, iv, 0.2 mg/kg, individual animals, read-out: Cmax - maximal concentration): 158 ng/mL | MRT ([3]; female, White Landrace, pig, plasma, iv, 0.2 mg/kg, individual animals, read-out: Mean residence time (converted)): 14.5 min | half-life ([3]; female, White Landrace, pig, plasma, iv, 0.2 mg/kg, individual animals, read-out: T1/2 - half-life): 9 to 10 min | Vd ([3]; female, White Landrace, pig, plasma, iv, 0.2 mg/kg, individual animals, read-out: Volume of distribution): 1.3 L/kg | Vd ([3]; female, White Landrace, pig, plasma, iv, 0.2 mg/kg, individual animals, read-out: Volume of distribution at steady state): 1.51 L/kg | AUC ([3]; female, White Landrace, pig, plasma, iv, 0.2 mg/kg, t=0 to 6 hours, individual animals): 27.9 ng·h/mL
Compound: O=c1[nH]c(CN2CCN(c3cccc(O)c3)CC2)nc2ccccc12 [Compound R-55, 2-((4-(3-hydroxyphenyl)piperazin-1-yl)methyl)quinazolin-4-one]
R-55 concentration (plasma) ([1]; transdermal 500 mg R-55, 60 minutes after application, individual animals #1-#4): 10.3 ng/ml and 0 ng/ml (2×) and 10.7 ng/ml | R-55 concentration (plasma) ([1]; transdermal 500 mg R-55, 90 minutes after application, individual animals #1-#4): 16.8 ng/ml and 0 ng/ml (2×) and 10.1 ng/ml | R-55 concentration (plasma) ([1]; transdermal 500 mg R-55, 2 hours after application, individual animals #1-#4): 14.8 ng/mL and 11.8 ng/mL and 0 ng/mL and 10.7 ng/mL | AUCINF ([3]; extrapolation to infinite time, individual animals): 2501.3 ng·min/mL and 2132.2 ng·min/mL | Clearance ([3]; individual animals): 80.0 mL/min/kg and 93.8 mL/min/kg | T1/2 - half-life ([3]; individual animals): 8.67 min and 10.34 min and 9.67 min | Clinical observations (side effects) ([3]; six hours following application): No abnormal side effects were observed | AUCall ([3]; t=0 to 6 hours, individual animals): 2129.0 ng·min/mL and 1821.3 ng·min/mL

— patent publication US9353067B2, “Heterocyclic compounds and uses thereof in the treatment of sexual disorders” (ATIR Holding S.A., priority 2011, dated 2016)
